One test deals with L1210vMDRC.06 cells. The experiment in a line: MDR sensitization (reversal) assay, doxorubicin, XTT viability. In kind it is cell-based, mouse. To be noted: compound 2.5 μM, IC50 Dox/IC50 Dox+Inhibitor. As for the experimental part:
(§1) We carried out multidrug resistance reversal (MDR) assays using L1210vMDRC.06 or HL60/Vinc cell lines. L1210vMDRC.06 are L1210 mouse leukemia cells transduced with the pHaMDR1/A retrovirus carrying a MDR1 cDNA, as described by Pastan et al., Proc. Natl. Acad. Sci. USA, 85, pp. 4486–4490 (1988). The L1210vMDRC.06 multidrug resistant line is a cell line that has been drug-selected by culturing transfected cells in 0.06 μg/ml colchicine. The HL60/Vinc human promyleocytic leukemia cell line is a multidrug resistant cell line derived from HL60 drug-sensitive parental cells by selection in increasing concentrations of vincristine.
Using L1210vMDRC.06, multidrug resistance reversal assays were conducted by plating 1×10^4 cells/well in 96 well microtiter plates and exposing them to a concentration range of doxorubicin (50 nM–10 μM) in the presence or absence of compounds of this invention (0.1, 0.25, 0.5, 1.0, or 2.5 μM) as described in U. Germann et al., Anti-Cancer Drugs, 8, pp. 125–140 (1997). After culture for 3 days, the viability of cells was quantitated using XTT dye to assess mitochondrial function [Roehm et al., J. Immunol. […] Results were determined by comparison of the IC50 for doxorubicin alone to the IC50 for doxorubicin+compound. An MDR ratio was calculated (IC50 Dox/IC50 Dox+Inhibitor) and the integer value used for comparison of compound potencies.

Test [1] relates to pheochromocytoma PC12 cells. The experiment in a line: Neurite outgrowth quantitation in PC12 cell system. In kind it is cell-based, rat. Particulars: 1–5 ng/ml NGF, 72 hours. How it is done:
In order to directly determine the neurotrophic activity of compounds described in this invention, the neurite outgrowth assay was carried out with pheochromocytoma PC12 cells as described by Lyons et al. (1994).
PC12 cells were maintained at 37° C. and 5% CO2 in Dulbecco's modified Eagle's medium (DMEM) supplemented with 10% heat-inactivated horse serum, 5% heat-inactivated fetal bovine serum (FBS), and 1% glutamate.
The cells were then plated at […] in 96 well plates coated with […] rat tail collagen and allowed to attach overnight. The medium was then replaced with DMEM, 2% heat-inactivated horse serum, 1% glutamate, 1–5 ng/ml of NGF (Sigma) and varying concentrations of the compounds of this invention (0.01 nM–10000 nM). The background control culture was administered with […] of NGF alone without compound. Positive control cultures were administered with high concentration of NGF (50 ng/ml). The cells were then incubated at 37° C. at 5% CO2 for 72 hours, fixed with 3% formaldehyde and nerve outgrowth was determined visually on a scale of 0 to 4.

For a further test, the target named is FKBP (Homo sapiens, UniProt P62942). The experiment in a line: Rotamase inhibition assay (chymotrypsin-coupled PPIase assay). In kind it is biochemical. Particulars: 15 nM FKBP, 30 μM Suc-Ala-Leu-Pro-Phe-pNA, 15° C. As for the experimental part: Inhibition of FKBP enzyme activity was determined in the PPIase assay described in S. T. Park et al., J. Biol. Chem., 267, pp. 3316–24 (1992), the disclosure of which is herein incorporated by reference. This is a chymotrypsin-coupled assay in which FKBP catalyzes the cis to trans isomerization of the Leu-Pro bond in the peptide substrate Suc-Ala-Leu-Pro-Phe-pNA. The trans form, but not the cis form, is cleavable by chymotrypsin. The release Phe-pNA was monitored by absorbance at 400 nm. Chymotrypsyn cleavage is very rapid and therefore cis-to-trans isomerization is rate-limiting.
Each reaction mix consisted of 0.1 M Tris buffer, pH 7.8, 15 nM FKBP, 30 μM substrate and 0.5 nM to 10 μM of compound to be tested diluted in Me2SO. The mixture was incubated at 15° C. for 5 minutes and then reaction was initiated by addition of chymotrypsin (100 μg/ml final concentration) and followed spectrophotometrically for 5 minutes. Total reaction volume was 1 ml.

The next test has as its system HL60/Vinc cells. The experiment in a line: MDR sensitization (reversal) assay, doxorubicin, XTT viability. Particulars: compound 2.5 μM, IC50 doxorubicin alone / IC50 doxorubicin plus compound. In kind it is cell-based, human. As for the experimental part:
as §1
Assays using HL60/Vinc cells were performed by plating cells in 96 well microtiter plates at a concentration of 4×10^4 cells/well. The cells were then exposed to various concentrations of doxorubicin (9 nM to 6.7 μM) in the presence or absence of various compounds of this invention at various concentrations (0.5, 1.0, 2.5, 5.0 or 10 μM) as described in U. Germann et al., Anti-Cancer Drugs, 8, pp. 141–155 (1997). After culturing the cells for 3 days, their viability was quantitated using the XTT dye method to assess mitochondrial function (Roehm et al., supra). Results were expressed as a ratio of the IC50 for doxorubicin alone to the IC50 for doxorubicin plus compound. In all assays the intrinsic antiproliferative or cytotoxicity activity of the MDR inhibitors was also determined for HL60/Vinc cells.

Each structure is given as a SMILES string. Marks after values point to notes of the source that are not given here.

Chain of FKBP (P62942 whole entry): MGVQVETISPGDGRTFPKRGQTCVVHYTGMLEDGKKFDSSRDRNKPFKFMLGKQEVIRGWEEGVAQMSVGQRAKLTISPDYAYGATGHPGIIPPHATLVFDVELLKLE

With `COc1cc(C(=O)CN2CCCCC2C(=O)OC(CCCc2cccnc2)CCCc2cccnc2)cc(OC)c1OC` (stereo not drawn) [Compound 105], in the test on L1210vMDRC.06 cells, the “MDR Ratio” value is recorded as 10. Besides, the entries for the “Neurite outgrowth, visual scale of 0 to 4” value (shortened to “Neurite outgrowth”) in test [1] (compound 10 nM), in test [1] (compound 100 nM) and in test [1] (compound 1000 nM) were 4, 4 and 0, respectively.
For the compound `CN(CCCc1cccnc1)C(=O)[C@@H]1CCCCN1S(=O)(=O)c1ccc(N)cc1` [Compound 3], the inhibition constant (Ki) at FKBP is more than 50 µM. Further, the “MDR Ratio” value with HL60/Vinc cells amounted to 0.6. Also, the “Neurite outgrowth” value in test [1] (compound 10 nM) is 2***; in test [1] (compound 100 nM), 4***; in test [1] (compound 1000 nM), 4***.
At FKBP, `CC(C)CN1CCCCC1C(=O)OC(CCCc1ccncc1)CCCc1cccnc1` (stereo not drawn) [Compound 112] gave an inhibitory constant (Ki) of more than 50 µM. For the same compound, in the test with HL60/Vinc cells, the “MDR Ratio” value was found to be 2.4. In addition, the “Neurite outgrowth” value was 3* in test [1] (compound 10 nM), 4* in test [1] (compound 100 nM) and 3* in test [1] (compound 1000 nM).
Compound `CN(C(=O)[C@H](Cc1ccccc1)N(C)S(=O)(=O)c1ccc(N)cc1)C(CCCc1cccnc1)CCCc1cccnc1` [Compound 4, (S)-(N-methyl)-2-(methyl-(4-amino-benzenesulfanilamido))-3-phenyl-N-(4-(pyridin-3-yl)-1-(3-(pyridin-3-yl)propyl)butyl) propionamide] registered a Ki at FKBP of more than 25 µM. Moreover, the “MDR Ratio” value with HL60/Vinc cells was determined as 6.2. Moreover, the figures for the “Neurite outgrowth” value in test [1] (compound 10 nM), in test [1] (compound 100 nM) and in test [1] (compound 1000 nM) were 3*, 3* and 4*, respectively.
On to `CNC(Cc1ccccc1)C(=O)N(C)CCc1ccccn1` (stereo not drawn) [Compound 107], for which the inhibitory constant (Ki) at FKBP is more than 25 µM. The “MDR Ratio” value with HL60/Vinc cells was found to be 0.9. Moreover, the “Neurite outgrowth” value in test [1] (compound 100 nM) is 3*; in test [1] (compound 1000 nM), 0*.
With `CN1CCCCC1C(=O)OC(CCCc1ccncc1)CCCc1cccnc1` (stereo not drawn) [Compound 111], on FKBP, the Ki was more than 50 µM. Further, in the test with HL60/Vinc cells, the “MDR Ratio” value is on record as 1.2. Moreover, the “Neurite outgrowth” value is reported as 4* in test [1] (compound 0.01 nM); 4* in test [1] (compound 0.1 nM); 3* in test [1] (compound 1 nM); 2** in test [1] (compound 10 nM); 4** in test [1] (compound 100 nM); 4** in test [1] (compound 1000 nM). In addition, the “Neurite outgrowth” value in test [1] (compound 10000 nM) is on record as 4*.
Take `O=C(OC(CCCc1ccncc1)CCCc1cccnc1)C1CCCCN1Cc1ccncc1` (stereo not drawn) [Compound 113]: the Ki on FKBP is more than 50 µM. For the same compound, the “MDR Ratio” value in the test with HL60/Vinc cells is recorded as 2.3. Moreover, the “Neurite outgrowth” value in test [1] (compound 10 nM) is reported as 3*; in test [1] (compound 100 nM), 4*; in test [1] (compound 1000 nM), 4*.
Consider `COc1ccc(S(=O)(=O)N(C)[C@@H](Cc2ccccc2)C(=O)N(C)C(CCCc2cccnc2)CCCc2cccnc2)cc1` [Compound 18], for which, on FKBP, the Ki was more than 50 µM. Besides, the “MDR Ratio” value in the test with HL60/Vinc cells is given as 10.8. Moreover, the figures for the “Neurite outgrowth” value in test [1] (compound 10 nM), in test [1] (compound 100 nM) and in test [1] (compound 1000 nM) were 3*, 4* and 4*, respectively.
As for `CN(C(=O)[C@H](Cc1ccccc1)N(C)S(=O)(=O)c1ccccc1[N+](=O)[O-])C(CCCc1cccnc1)CCCc1cccnc1` [Compound 8], on FKBP, the Ki is more than 50 µM. For the same compound, the “MDR Ratio” value with HL60/Vinc cells is 28.5. Further, the entries for the “Neurite outgrowth” value in test [1] (compound 10 nM), in test [1] (compound 100 nM) and in test [1] (compound 1000 nM) were 4*, 2* and 3*, respectively.
Turning to `CN(CCc1ccccn1)C(=O)C1CCCCN1` (stereo not drawn) [Compound 106], the inhibition constant Ki on FKBP is more than 50 µM. Moreover, in the test with HL60/Vinc cells, the “MDR Ratio” value stood at 1.2. The “Neurite outgrowth” value in test [1] (compound 100 nM) is listed as 1*; in test [1] (compound 1000 nM), 2*.

The values above are taken from patent publication US7109215B2, “Compounds possessing neuronal activity” (Vertex Pharmaceuticals Incorporated, priority 1997, dated 2006).
